Experimental data from patent publication US11458189B2, “Cytoprotective drugs” (BALMES TRANSPLANTATION, priority 2017, dated 2022).
Starred links: 1 amine or outer side, 2 acyl side, 3 side chain; linkers in the order of their positions; H or OH if unused. Positions of bridges follow the written chain, without caps; N, C: chain ends. Non-standard residues stand in square brackets, D forms with d. Residues, ends and D or L forms follow the SMILES beside them. *: point of attachment. hTyr(3S-OH,4S-OH,3'-OSO3H) = N[C@H](C(=O)O)[C@H](O)[C@@H](O)c1ccc(O)c(OS(=O)(=O)O)c1; Orn(4R-OH,5R-OH) = O=C([C@H](C[C@@H](O)[C@@H](O)N[*:3])N[*:1])[*:2]; Pro(3S-OH,4S-Me) = C[C@H]1CN[C@H](C(=O)O)[C@H]1O; X1 = CCCCCOc1ccc(-c2cc(-c3ccc(C(=O)*)cc3)no2)cc1; Gln(3R-OH) = NC(=O)C[C@@H](O)[C@H](N)C(=O)O; Hyp = O=C(O)[C@@H]1C[C@@H](O)CN1

Tested on: Human Astrocytes (HA)
Assay: Oxygen and glucose deprivation followed by replenishment, cell survival (calcein AM), HA
Format: cell-based
Procedure: Anidulafungin and micafungin were tested on Human Renal Glomerular Endothelial Cells (HRGEC, Innoprot P10665), on Human Renal Proximal Tubular Epithelial Cells (HRPTEpiC, Innoprot P10662), on Human Astrocytes (HA, caltag SC-1800), on Human Cardiac Microvascular Endothelial Cells (HCMEC, Caltag SC-6000), on Human Hepatic Sinusoidal Endothelial Cells (HHSEC, Caltag SC-5000), on Rat Primary Kidney Glomerular Endothelial cells (Cellbiologics, RN-6014G) and on Bovine Brain Microvascular Endothelial Cells (BBMEC, Caltag SC-B100).
In a first phase, these isolated, purified and cryopreserved cells are thawed and multiplied according to the supplier's recommendations in T75 or T175 flasks pre-coated with 2 μg of fibronectin/[…] (CORNING) for HRGEC, HCMEC, HHSEC and BBMEC, or 2 μg poly-L-lysin/cm^2 (Caltag SC-0403) for HRPTEpiC and HA, or 15 mL/flask 175 cm^2 gelatin-based solution (Cellbiologics) in the presence of endothelial cell supplemented growth medium ECM (P60104, INNOPROT, Caltag, SC-1001) for HRGEC, HCMEC, HHSEC, RPKGEC or BBMEC, or astrocyte cell supplemented growth medium AM (Caltag SC-1801) for HA or epithelial cell supplemented growth medium EpiCM (P60106, INNOPROT) for HRPTEpiC, at 37° C. under 5% CO2 and saturated humidity until their confluency. They are then harvested by trypsinization according to the method described by the supplier for exactly 5 minutes and then reseeded in new flasks a maximum of three times.
To carry out the oxygen and glucose deprivation test followed by their replenishment, the cells will be seeded in 96-well black plates with transparent flat bottom (GREINER). Once a sufficient number of cells has been obtained to allow seeding of 2000 to 15000 cells per well of 96-well plates depending on the cell type, the cells are seeded in these 96-well plates previously coated with an extracellular matrix as listed above for the flasks. The cells are cultured for 5 to 8 days according to the cell type, in the presence of the same growth medium as in the flask as described above except for HRGEC and HRPTEpiC for which DMEM (DUTSCHER) with 1 g/L of supplemented glucose is used, at 37° C. under 5% CO2 and saturated humidity to obtain confluency.
On the first day of oxygen and glucose deprivation, (5th, 6th, 7th or 8th day of culture), the culture conditions are drastically changed. The medium of all plates is removed and replaced by DMEM (DUTSCHER) medium without glucose and supplemented only with 1% penicillin-streptomycin (DUTSCHER). Anidulafungin or micafungin dissolved in dimethyl sulfoxide (DMSO) is then added to each well at the desired concentration, resulting in a maximum of 1% DMSO, and the plates are placed under hypoxia at <1% 02 and 5% CO2 at 37° C. for 24 hours of culture. Each compound was tested in a concentration range.
After 24 hours, the growth medium is changed and replaced by a richer medium, DMEM (DUTSCHER) at 1 g/L glucose and 2% FBS (INNOPROT) and 1% penicillin-streptomycin (DUTSCHER). These media will have been pre-equilibrated at 37° C. in advance. The cells are then returned to culture at 37° C. under 20% 02 and 5% CO2 for 22h.
After 22 hours of reoxygenation, the potential protective effect of anidulafungin or micafungin is measured by a cell viability test using calcein AM (CORNING), which is a dye substrate. The calcein AM can easily cross the cell membrane of the viable cells. The AM ester groups mask the part of the molecule that chelates calcium. Once inside the cells, the (non-fluorescent) calcein AM is hydrolyzed to (fluorescent) calcein by endogenous esterases. The resulting calcein molecule binds to calcium inside the cell and remains trapped inside the cell. These molecules emit strong green fluorescence when subjected to […] of a particular wavelength (495 nm). Since dead cells lack esterase activity, only living cells are labelled.
This cell viability test is performed in two steps. […]

## CCCCCOc1ccc(-c2cc(-c3ccc(C(=O)N[C@H]4C[C@@H](O)[C@@H](O)NC(=O)[C@@H]5[C@@H](O)[C@@H](C)CN5C(=O)[C@H]([C@H](O)CC(N)=O)NC(=O)[C@H]([C@H](O)[C@@H](O)c5ccc(O)c(OS(=O)(=O)O)c5)NC(=O)[C@@H]5C[C@@H](O)CN5C(=O)[C@H]([C@@H](C)O)NC4=O)cc3)no2)cc1 [Micafungin, {5-[(1S,2S)-2-[(3S,6S,9S,11R,15S,18S,20R,21R,24S,25S,26S)-3-[(1R)-2-carbamoyl-1-hydroxyethyl]-11,20,21,25-tetrahydroxy-15-[(1R)-1-hydroxyethyl]-26-methyl-2,5,8,14,17,23-hexaoxo-18-[(4-{5-[4-(pentyloxy)phenyl]-1,2-oxazol-3-yl}benzene)amido]-1,4,7,13,16,22-hexaazatricyclo[22.3.0.0]heptacosan-6-yl]-1,2-dihydroxyethyl]-2-hydroxyphenyl}oxidanesulfonic acid] (X1-[Orn(4R-OH,5R-OH)]T[Hyp][hTyr(3S-OH,4S-OH,3'-OSO3H)][Gln(3R-OH)][Pro(3S-OH,4S-Me)]; lactam 1-C)
[Micafungin] log μM 0
  Globalfluo assay 1: 11119980 arbitrary units
  Globalfluo assay 2: 10122420 arbitrary units
  Globalfluo assay 3: 9942897 arbitrary units
  Mean globalfluo: 10395099 arbitrary units
  Survival rate (%): 2%
[Micafungin] log μM 0.4771213
  Globalfluo assay 1: 10184240 arbitrary units
  Globalfluo assay 2: 11122790 arbitrary units
  Globalfluo assay 3: 12211830 arbitrary units
  Mean globalfluo: 11172953 arbitrary units
  Survival rate (%): 6%
[Micafungin] log μM 0.7781513
  Globalfluo assay 1: 12145620 arbitrary units
  Globalfluo assay 2: 12627660 arbitrary units
  Globalfluo assay 3: 12964960 arbitrary units
  Mean globalfluo: 12579413 arbitrary units
  Survival rate (%): 14%
[Micafungin] log μM 0.90309
  Globalfluo assay 1: 12128260 arbitrary units
  Globalfluo assay 2: 10787240 arbitrary units
  Globalfluo assay 3: 13139350 arbitrary units
  Mean globalfluo: 12018283 arbitrary units
  Survival rate (%): 11%
[Micafungin] log μM 1
  Globalfluo assay 1: 15956640 arbitrary units
  Globalfluo assay 2: 14291510 arbitrary units
  Globalfluo assay 3: 16904820 arbitrary units
  Mean globalfluo: 15717657 arbitrary units
  Survival rate (%): 32%
[Micafungin] log μM 1.079181
  Globalfluo assay 1: 12974980 arbitrary units
  Globalfluo assay 2: 13357070 arbitrary units
  Globalfluo assay 3: 13693180 arbitrary units
  Mean globalfluo: 13341743 arbitrary units
  Survival rate (%): 18%
[Micafungin] log μM 1.176091
  Globalfluo assay 1: 15116230 arbitrary units
  Globalfluo assay 2: 14430130 arbitrary units
  Globalfluo assay 3: 15740520 arbitrary units
  Mean globalfluo: 15095627 arbitrary units
  Survival rate (%): 28%
[Micafungin] log μM 1.30103
  Globalfluo assay 1: 11900350 arbitrary units
  Globalfluo assay 2: 13780590 arbitrary units
  Globalfluo assay 3: 15553770 arbitrary units
  Mean globalfluo: 13744903 arbitrary units
  Survival rate (%): 21%
[Micafungin] log μM 1.477121
  Globalfluo assay 1: 14577460 arbitrary units
  Globalfluo assay 2: 14402140 arbitrary units
  Globalfluo assay 3: 13825080 arbitrary units
  Mean globalfluo: 14268227 arbitrary units
  Survival rate (%): 24%
[Micafungin] log μM −0.5228788
  Globalfluo assay 1: 9708125 arbitrary units
  Globalfluo assay 2: 10748420 arbitrary units
  Globalfluo assay 3: 10103750 arbitrary units
  Mean globalfluo: 10186765 arbitrary units
  Survival rate (%): 1%
[Micafungin] log μM −1
  Globalfluo assay 1: 12091240 arbitrary units
  Globalfluo assay 2: 10337500 arbitrary units
  Globalfluo assay 3: 9946542 arbitrary units
  Mean globalfluo: 10791761 arbitrary units
  Survival rate (%): 4%
[Micafungin] log μM −2
  Globalfluo assay 1: 9536623 arbitrary units
  Globalfluo assay 2: 9993250 arbitrary units
  Globalfluo assay 3: 10712930 arbitrary units
  Mean globalfluo: 10080934 arbitrary units
  Survival rate (%): 0%
